According to paper PMC6972728, “Anthranilamide-based Short Peptides Self-Assembled Hydrogels as Antibacterial Agents” (Scientific Reports, 2020):
Square brackets hold non-standard residues; d marks the D form. Peptide text beside a SMILES is read from it. * marks the point of attachment. 2Abz = Nc1ccccc1C(=O)O; Bz = O=C(c1ccccc1)*

Key:
[1] = tested on: S. aureus; conditions: cited from earlier work
Procedure: With a complete understanding of the hydrogel ultrastructure now in-hand, the antibacterial activity of N-acetyl 1, N-benzoyl 2 and N-naphthoyl 3 was assessed, in order to evaluate the effect of increased hydrophobicity on antibacterial activity. Further, the stiffest (BA 9) and softest (methyl 6) of the remaining gelators were tested to discern the relationship of hydrogel stiffness to antimicrobial activity. Staphylococcus aureus, the most common causative organism for skin and soft tissue infections, was chosen as the bacterial strain to assess the hydrogels antibacterial activity. Thes ...

[2] = Temperature dependent CD spectroscopy (thermal denaturation); assay type: physicochemical; conditions: temperature increased from 25 °C to 60 °C; diluted hydrogel
Procedure: In addition, CD spectroscopy was also used as a tool to investigate gradual thermal denaturation of anthranilamide-based short peptides.
The anthranilamide-based hydrogels were prepared at 0.8% (w/v) and were diluted 10 times before being transferred into a 0.5 mm path length cuvette. Meanwhile, for the concentration dependence, the hydrogel made from N-benzoyl 2 at 0.8% (w/v) was diluted to make up concentrations ranging from 0.058 mM – 0.470 mM before being transferred into a 0.5 mm path length cuvette.
CD spectrum were obtained using a ChirascanPlus CD spectrometer (Applied Photophysics, UK) scanning wavelengths of 180–500 nm with a bandwidth of 1 nm, 0.6 s per point, and step of 1 nm[22]. The outcome of three experiments were then averaged and plotted into a single plot value. The high tension (HT) value of each experiment was maintained to be below 600 mV (Fig. S17).

[3] = tested on: HEK293T cells; assay: Contact cytotoxicity of hydrogels, Alamar Blue colorimetric assay; assay type: cell-based; conditions: hydrogels at 0.25, 0.5 and 1% (w/v), cells seeded on hydrogel, 24 h, repeated at least three times
Procedure: With this in mind, the cytotoxicity of lead candidates N-benzoyl 2, N-naphthoyl 3, and BA 9 (para) from the antibacterial studies were examined against HEK293T cells, as a robust mammalian cell model. As the antibacterial activity of the 2, 3 and 9 was evaluated in the gel phase, contact cytotoxicity of hydrogels at concentrations of 0.25, 0.5, and 1% (w/v) was examined.
Similar to previously reported method, cytotoxicity measurement was performed using an Alamar Blue colorimetric assay on HEK293T cells. HEK293T cells were passaged using standard cell culture procedures. Cells were detached with trypsin and centrifuged (1000 rpm for 3 min). After supernatant was removed, the cells were re-suspended in Dulbecco’s Modified Eagle Medium (DMEM) at a concentration of 60,000 cells/mL. Cells were seeded onto hydrogels at a concentration of 6,000 cells/well. Hydrogels were prepared as described above and 100 µL cast into the wells of a 96 well plate in triplicate. After incubating overnight, 100 µL media was added to the set hydrogels and incubated overnight. The following day, excess media was aspirated and cells seeded atop the hydrogels as above. After incubation for 24 hours, 10 µL Alamar Blue was added to each well, followed by further incubation for another 4 hours. […] BioRad Benchmark plate reader was used to measure the absorbance at 570 nm and 596 nm. […]

[4] = not given; remark: listed apart in the source
[5] = Hydrogel formation, critical gel concentration and gelation time by vial inversion test; assay type: physicochemical
From the text: Several triggers such as physical stimuli, pH switch, solvent switch, or a combination of these, were employed to assess the self-assembly of compounds 1–11 in water. Initially, hydrogel formation of compounds 1–11, at 1% (w/v), was investigated using a combination of pH switch and temperature switch. The compounds were heated in dilute sodium hydroxide (NaOH) in order to deprotonate the carboxylic acid group at the C-terminus of the short peptides.
Compared to a mineral acid, GdL promotes the formation of a homogenous hydrogel due to its slow hydrolysis and fast dissolution rate in water[39],[40].
In addition, the effect of salt which can induce gelation in basic peptide solutions[41], due to high ionic was also investigated for peptides 1–11.
In a final attempt to induce gelation in peptides 4, 7 and 11, a solvent switch method using dimethyl sulfoxide (DMSO), methanol, or ethanol as co-solvent was employed[42]–[47]. […] Given that these hydrogels were designed with antibacterial applications in mind, due to the potential toxicity concerns arising from the use of organic co-solvents, further characterisation of peptides 4, 7 and 11 was not carried out.
The critical gel concentration (CGC) represents the minimum amount of the anthranilamide-based short peptide required to form a hydrogel. The CGC of anthranilamide-based short peptides were qualitatively assessed by varying the short peptide concentrations and conducting vial inversion test[48]–[50]. […] Here, gelation time represents the time required for these short peptides, at 1% (w/v), to form self-supporting hydrogels as assessed through the vial inversion test.
To a pre-weighed compound in a glass vial, 1 M NaOH (2–8 molar equiv.) was added followed by addition of Mili-Q water. The suspension was then heated and vortexed vigorously for 15 minutes to completely dissolve the compound. In the case of N-acetyl 1, N-benzoyl 2, N-naphthoyl 3, fluoro 5 and methyl 6, these clear solutions were left to cool to room temperature for 1–30 minutes. GdL (2–3 equiv.) was added to a solution of compounds 7–11 in NaOH. […]

CC(=O)Nc1ccccc1C(=O)N[C@@H](Cc1ccccc1)C(=O)N[C@@H](Cc1ccccc1)C(=O)O (Ac-[2Abz]-Phe-Phe-OH)
amide I peak (disordered coil): 1650 cm⁻¹

[Na+].[OH-] [NaOH, sodium hydroxide]
MIC [1]: 7500 µg/mL

O=C(Nc1ccccc1C(=O)N[C@@H](Cc1ccccc1)C(=O)N[C@@H](Cc1ccccc1)C(=O)O)c1ccccc1 [compound 2] ({Bz-2Abz}-Phe-Phe-OH)
Thermal stability of ß-sheet secondary structure (CD) [2]: no significant conformational changes
Cytotoxicity towards HEK cells [3]: moderate cytotoxicity
Gʹ (stiffness) [4]: 16.9 kPa

O=C(Nc1ccccc1C(=O)N[C@@H](Cc1ccccc1)C(=O)N[C@@H](Cc1ccccc1)C(=O)O)c1ccc2ccccc2c1 [compound 3]
Cytotoxicity towards HEK cells [3]: poor cell viability
Gʹ (stiffness) [4]: 5.7 kPa

O=C(N[C@@H](Cc1ccccc1)C(=O)N[C@@H](Cc1ccccc1)C(=O)O)c1ccccc1NS(=O)(=O)c1cccc2ccccc12 [compound 4]
Hydrogel formation outcome ([5]; 1% (w/v), heated in dilute NaOH, cooled to room temperature (pH switch and temperature switch), up to 48 hours): remained as clear solutions
Hydrogel formation outcome ([5]; 3 equivalents of GdL added to basic solution): white precipitate
Hydrogel formation outcome ([5]; solvent switch, DMSO: water at 1% w/v): gels were observed only for the first 5 minutes
